Active and inactive are the calls of the source.
Tests used:
Danio rerio [1] = assay: Cardioprotective activity against doxorubicin-induced Tg(cmlc2: GFP) Zebrafish assessed as […] at 5 uM measured at 72 hrs post fertilization; type: functional, organism-based
Danio rerio [2] = organism: Danio rerio; assay: Cardioprotective activity against doxorubicin-induced Tg(cmlc2: GFP) Zebrafish assessed as restoration of normal heart structure at 5 uM measured at 72 hrs post fertilization; type: functional, organism-based
Danio rerio [3] = organism: Danio rerio; assay: Cardioprotective activity against doxorubicin-induced Tg(cmlc2: GFP) Zebrafish assessed as reduction in cTnT mRNA level measured at 72 hrs post fertilization by qPCR analysis; type: functional, organism-based; conditions: dose <= 5.0 µM
Danio rerio [4] = organism: Danio rerio; assay: Cardioprotective activity against doxorubicin-induced Tg(cmlc2: GFP) Zebrafish assessed as reduction in Anp mRNA level measured at 72 hrs post fertilization by qPCR analysis; type: functional, organism-based; conditions: dose <= 5.0 µM
Danio rerio [5] = organism: Danio rerio; assay: Cardioprotective activity against doxorubicin-induced Tg(cmlc2: GFP) Zebrafish assessed as reduction in Bnp mRNA level measured at 72 hrs post fertilization by qPCR analysis; type: functional, organism-based
Danio rerio [6] = organism: Danio rerio; assay: Cardioprotective activity against doxorubicin-induced Tg(cmlc2: GFP) Zebrafish at 5 uM measured at 72 hrs post fertilization; type: functional, organism-based
Danio rerio [7] = organism: Danio rerio; assay: Cardioprotective activity against doxorubicin-induced Tg(cmlc2: GFP) Zebrafish at 15 uM measured at 72 hrs post fertilization; type: functional, organism-based
H9c2 [8] = assay: Cardioprotective activity against doxorubicin-induced rat H9c2 cells assessed as increase in cell viability incubated for 24 hrs by CCK-8 assay; type: functional, cell-based; conditions: dose 1-10 µM
H9c2 [9] = assay: Cardioprotective activity against doxorubicin-induced rat H9c2 cells assessed as reduction in LDH release upto 10 uM; type: functional, cell-based
H9c2 [10] = assay: Cardioprotective activity against doxorubicin-induced rat H9c2 cells assessed as downregulation of Anp mRNA level upto 10 uM qPCR analysis; type: functional, cell-based
H9c2 [11] = assay: Cardioprotective activity against doxorubicin-induced rat H9c2 cells assessed as downregulation of Bnp mRNA level upto 10 uM qPCR analysis; type: functional, cell-based
H9c2 [12] = assay: Cardioprotective activity against doxorubicin-induced rat H9c2 cells assessed as downregulation of cTnT mRNA level upto 10 uM qPCR analysis; type: functional, cell-based
H9c2 [13] = assay: Induction of ROS accumulation in doxorubicin-induced rat H9c2 cells assessed as reduction in fluorescence intensity incubated for 30 min by DCFH-DA and PI staining based microscopic analysis; type: functional, cell-based; conditions: dose 1-10 µM
H9c2 [14] = assay: Antioxidant activity against doxorubicin-induced rat H9c2 cells assessed as decrease in MDA level upto 10 uM; type: functional, cell-based
H9c2 [15] = assay: Antioxidant activity against doxorubicin-induced rat H9c2 cells assessed as increase in GSH level upto 10 uM; type: functional, cell-based
H9c2 [16] = assay: Antioxidant activity against doxorubicin-induced rat H9c2 cells assessed as increase in SOD level upto 10 uM; type: functional, cell-based
H9c2 [17] = assay: Induction of mitochondrial membrane potential loss in doxorubicin-induced rat H9c2 cells incubated for 30 mins by JC-1 staining based fluorescence microscopic analysis; type: cell-based; conditions: dose 1-10 µM
H9c2 [18] = assay: Upregulation of SIRT3 expression in rat H9c2 cells upto 10 uM by Western blot analysis; type: functional, cell-based
H9c2 [19] = assay: Upregulation of SOD2 expression in rat H9c2 cells upto 10 uM by Western blot analysis; type: functional, cell-based
H9c2 [20] = assay: Upregulation of OPA1 expression in rat H9c2 cells upto 10 uM by Western blot analysis; type: functional, cell-based
H9c2 [21] = assay: Cardioprotective activity against doxorubicin-induced rat H9c2 cells assessed as increase in cell viability at 10 uM incubated for 24 hrs by CCK-8 assay; type: functional, cell-based
H9c2 [22] = assay: Cardioprotective activity against doxorubicin-induced rat H9c2 cells assessed as increase in cell viability at 10 uM incubated for 24 hrs in presence of 3-TYP by CCK-8 assay; type: functional, cell-based
H9c2 [23] = assay: Cardioprotective activity against doxorubicin-induced rat H9c2 cells assessed as increase in cell viability at 10 uM incubated for 24 hrs in presence of EX527 by CCK-8 assay; type: functional, cell-based
H9c2 [24] = assay: Cardioprotective activity against doxorubicin-induced rat H9c2 cells assessed as reduction in LDH release upto 10 uM in presence of 3-TYP; type: functional, cell-based
H9c2 [25] = assay: Antioxidant activity against doxorubicin-induced rat H9c2 cells assessed as increase in GSH level upto 10 uM in presence of 3-TYP; type: functional, cell-based
H9c2 [26] = assay: Antioxidant activity against doxorubicin-induced rat H9c2 cells assessed as increase in SOD level upto 10 uM in presence of 3-TYP; type: functional, cell-based
H9c2 [27] = assay: Antioxidant activity against doxorubicin-induced rat H9c2 cells assessed as decrease in MDA level upto 10 uM in presence of 3-TYP; type: functional, cell-based
H9c2 [28] = assay: Induction of ROS accumulation in doxorubicin-induced rat H9c2 cells assessed as reduction in fluorescence intensity upto 10 uM incubated for 30 min in presence of 3-TYP by DCFH-DA and PI staining based microscopic analysis; type: functional, cell-based
H9c2 [29] = assay: Induction of mitochondrial membrane potential loss in doxorubicin-induced rat H9c2 cells incubated for 30 mins in prsence of 3-TYP by JC-1 staining based fluorescence microscopic analysis; type: cell-based
H9c2 [30] = assay: Induction of ROS accumulation in doxorubicin-induced rat H9c2 cells transfected with SIRT3 siRNA assessed as reduction in fluorescence intensity at 10 uM incubated for 30 min in presence of 3-TYP by DCFH-DA and PI staining based microscopic analysis; type: functional, cell-based
H9c2 [31] = assay: Induction of mitochondrial membrane potential loss in doxorubicin-induced rat H9c2 cells transfected with SIRT3 siRNA incubated for 30 mins in prsence of 3-TYP by JC-1 staining based fluorescence microscopic analysis; type: cell-based
H9c2 [32] = assay: Upregulation of SOD2 expression in doxorubicin-induced rat H9c2 cells transfected with SIRT3 siRNA at 10 uM by Western blot analysis; type: functional, cell-based
H9c2 [33] = assay: Upregulation of OPA1 expression in doxorubicin-induced rat H9c2 cells transfected with SIRT3 siRNA at 10 uM by Western blot analysis; type: functional, cell-based
Mus musculus [34] = assay: Cardioprotective activity against doxorubicin-induced C57BL/6 mouse cardiomyopathy model assessed as collagen fraction volume at 2.5 mg/kg, ip administered for 7 days by masson staining based analysis; type: functional, organism-based; conditions: time 7.0 day
Mus musculus [35] = assay: Cardioprotective activity against doxorubicin-induced C57BL/6 mouse cardiomyopathy model assessed as collagen fraction volume at 2.5 mg/kg, ip administered for 7 days by Sirius staining based analysis; type: functional, organism-based; conditions: time 7.0 day
Mus musculus [36] = assay: Cardioprotective activity against doxorubicin-induced C57BL/6 mouse cardiomyopathy model assessed as reduction in Anp mRNA level at 2.5 mg/kg, ip administered for 7 days; type: functional, organism-based; conditions: time 7.0 day
Mus musculus [37] = assay: Cardioprotective activity against doxorubicin-induced C57BL/6 mouse cardiomyopathy model assessed as reduction in Bnp mRNA level at 2.5 mg/kg, ip administered for 7 days; type: functional, organism-based; conditions: time 7.0 day
Mus musculus [38] = assay: Cardioprotective activity against doxorubicin-induced C57BL/6 mouse cardiomyopathy model assessed as reduction in cTnT mRNA level at 2.5 mg/kg, ip administered for 7 days; type: functional, organism-based; conditions: time 7.0 day
Mus musculus [39] = organism: Mus musculus; assay: Antioxidant activity against doxorubicin-induced C57BL/6 mouse assessed as increase in GSH level in heart; type: functional, organism-based
Mus musculus [40] = organism: Mus musculus; assay: Antioxidant activity against doxorubicin-induced C57BL/6 mouse assessed as decrease in MDA level in heart; type: functional, organism-based
Mus musculus [41] = assay: Cardioprotective activity against doxorubicin-induced C57BL/6 mouse cardiomyopathy model assessed as upregulation of SIRT3 level at 2.5 mg/kg, ip administered for 7 days by Western blot analysis; type: functional, organism-based; conditions: time 7.0 day
Mus musculus [42] = assay: Cardioprotective activity against doxorubicin-induced C57BL/6 mouse cardiomyopathy model assessed as upregulation of SOD2 level at 2.5 mg/kg, ip administered for 7 days by Western blot analysis; type: functional, organism-based; conditions: time 7.0 day
Mus musculus [43] = assay: Cardioprotective activity against doxorubicin-induced C57BL/6 mouse cardiomyopathy model assessed as upregulation of […] level at 2.5 mg/kg, ip administered for 7 days by Western blot analysis; type: functional, organism-based; conditions: time 7.0 day
Danio rerio [44] = assay: Cardioprotective activity against doxorubicin-induced Zebrafish cardiomyopathy model assessed as survival rate at 40 uM fertilized for 24 hrs followed by compound administration for 72 hrs and measured at 96 hrs post fertilization by inverted fluorescence microscopic analysis; type: functional
Danio rerio [45] = assay: Cardioprotective activity against doxorubicin-induced Zebrafish cardiomyopathy model assessed as survival rate at 60 uM fertilized for 24 hrs followed by compound administration for 72 hrs and measured at 96 hrs post fertilization by inverted fluorescence microscopic analysis; type: functional
Danio rerio [46] = assay: Cardioprotective activity against doxorubicin-induced Tg(cmlc2: GFP) Zebrafish assessed as […] at 60 uM measured at 72 hrs post fertilization; type: functional, organism-based
Danio rerio [47] = organism: Danio rerio; assay: Cardioprotective activity against doxorubicin-induced Tg(cmlc2: GFP) Zebrafish assessed as restoration of normal heart structure at 60 uM measured at 72 hrs post fertilization; type: functional, organism-based
Danio rerio [48] = assay: Cardioprotective activity against doxorubicin-induced Zebrafish cardiomyopathy model at 5 to 15 uM fertilized for 24 hrs followed by compound administration for 72 hrs and measured at 96 hrs post fertilization by inverted fluorescence microscopic analysis; type: functional, organism-based; conditions: dose 5-15 µM
Danio rerio [49] = assay: Cardioprotective activity against doxorubicin-induced Zebrafish cardiomyopathy model assessed as survival rate at 10 uM fertilized for 24 hrs followed by compound administration for 72 hrs and measured at 96 hrs post fertilization by inverted fluorescence microscopic analysis; type: functional
[50] = Toxicity in zebrafish embryos assessed as survival at upto 40 uM fertilized for 24 hrs followed by compound administration for 72 hrs and measured at 96 hrs post fertilization; set-up: species or system Danio rerio; conditions: in vivo
Danio rerio [51] = assay: Cardioprotective activity against doxorubicin-induced Tg(cmlc2: GFP) Zebrafish assessed as […] at 10 uM measured at 72 hrs post fertilization; type: functional, organism-based
Danio rerio [52] = organism: Danio rerio; assay: Cardioprotective activity against doxorubicin-induced Tg(cmlc2: GFP) Zebrafish assessed as restoration of normal heart structure at 10 uM measured at 72 hrs post fertilization; type: functional, organism-based

C[C@@]12CC[C@@H]3[C@@](CC[C@H]4[C@@]3(C)CCC[C@@]4(C)C(=O)N3CCN(C(=O)c4ccccc4C(=O)O)CC3)(CC1=O)C2
active: Activity (Danio rerio [1]) | Activity (Danio rerio [2]) | Activity (Danio rerio [3]) Dose-Dependent Effect | Activity (Danio rerio [4]) Dose-Dependent Effect | Activity (Danio rerio [5]) Dose-Dependent Effect | Activity (Danio rerio [6]) | Activity (Danio rerio [7]) | Activity (H9c2 [8]) Dose-Dependent Effect | Activity (H9c2 [9]) | Activity (H9c2 [10]) | Activity (H9c2 [11]) | Activity (H9c2 [12]) | Activity (H9c2 [13]) Dose-Dependent Effect | Activity (H9c2 [14]) | Activity (H9c2 [15]) | Activity (H9c2 [16]) | Activity (H9c2 [17]) Dose-Dependent Effect | Activity (H9c2 [18]) | Activity (H9c2 [19]) | Activity (H9c2 [20]) | Activity (H9c2 [21]) | Activity (H9c2 [24]) | Activity (H9c2 [25]) | Activity (H9c2 [26]) | Activity (H9c2 [27]) | Activity (H9c2 [28]) | Activity (H9c2 [29]) | Activity (H9c2 [30]) | Activity (H9c2 [31]) | Activity (H9c2 [32]) | Activity (H9c2 [33]) | Activity (Mus musculus [34]) | Activity (Mus musculus [35]) | Activity (Mus musculus [36]) | Activity (Mus musculus [37]) | Activity (Mus musculus [38]) | Activity (Mus musculus [39]) | Activity (Mus musculus [40]) | Activity (Mus musculus [41]) | Activity (Mus musculus [42]) | Activity (Mus musculus [43])
inactive: Activity (H9c2 [22]) | Activity (H9c2 [23])

C[C@@H]1CC(=O)NN=C1c1ccc(NN=C(C#N)C#N)cc1 [LEVOSIMENDAN]
75%: survival at 40 µM (Danio rerio [44])
active: Activity (Danio rerio [46]) | Activity (Danio rerio [47])
84%: survival at 60 µM (Danio rerio [45])

C[C@@]12CC[C@@H]3[C@@](CC[C@H]4[C@@]3(C)CCC[C@@]4(C)C(=O)O)(CC1=O)C2 [ISOSTEVIOL]
43%: survival at 10 µM (Danio rerio [49])
Non-Toxic: Activity [50]
active: Activity (Danio rerio [48]) | Activity (Danio rerio [51]) | Activity (Danio rerio [52])

Reference: ChEMBL document CHEMBL5543130, “Design, Synthesis, and In Vivo Evaluation of Isosteviol Derivatives as New SIRT3 Activators with Highly Potent Cardioprotective Effects” (J Med Chem, 2024)
